Measurements: US11447486B2, “2-amino-benzimidazole derivatives and their use as 5-lipoxygenase and/or prostaglandin E synthase inhibitors” (INSTITUT PASTEUR KOREA, priority 2014, dated 2022)
pEC50, pIC50: −log10 of the molar value.

What was measured:
[1] = molecular target: T1, human 5-LOX (Homo sapiens, UniProt P09917); experiment: 5-LOX enzyme activity, fluorescence method (5-HPETE, H2DCFDA); type: biochemical; settings: read-out: 5-LO (IC50)
T1 construct: purchased Cayman 60402; host or cells: insect cells (lysate)
T1 sequence (P09917 1-674): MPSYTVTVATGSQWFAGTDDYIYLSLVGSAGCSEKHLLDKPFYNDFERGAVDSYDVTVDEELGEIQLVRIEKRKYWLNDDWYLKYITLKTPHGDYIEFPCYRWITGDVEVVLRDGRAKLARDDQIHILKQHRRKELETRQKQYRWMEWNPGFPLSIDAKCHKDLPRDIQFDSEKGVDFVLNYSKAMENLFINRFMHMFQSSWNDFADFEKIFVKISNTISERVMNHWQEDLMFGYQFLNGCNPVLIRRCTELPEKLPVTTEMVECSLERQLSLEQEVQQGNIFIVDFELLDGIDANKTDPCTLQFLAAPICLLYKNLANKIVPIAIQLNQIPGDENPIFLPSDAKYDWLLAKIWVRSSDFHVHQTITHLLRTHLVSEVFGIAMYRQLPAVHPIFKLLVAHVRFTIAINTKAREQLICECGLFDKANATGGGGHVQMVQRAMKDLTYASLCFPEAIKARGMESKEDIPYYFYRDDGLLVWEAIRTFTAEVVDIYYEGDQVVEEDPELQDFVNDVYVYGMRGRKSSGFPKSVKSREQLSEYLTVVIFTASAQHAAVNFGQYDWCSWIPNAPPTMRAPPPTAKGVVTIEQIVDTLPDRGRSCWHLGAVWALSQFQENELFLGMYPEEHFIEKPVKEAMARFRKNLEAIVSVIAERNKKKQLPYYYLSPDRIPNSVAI
Method in brief: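 Compound (0.5 nM to 10 uM) pre-incubated 5 min with enzyme; reaction started with ATP (100 uM final) and arachidonic acid (3 uM final). All steps at room temperature, fluorescence read-out.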

[2] = test system: Rat basophilic leukemia (RBL) cells; experiment: LTB4 secretion assay in RBL (rat basophilic leukemia cells); type: cell-based; settings: Rattus norvegicus, RBL
Method in brief: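 Cells seeded 2×10^4/well the day before, then pre-incubated 15 min at 37 °C in EMEM/0.5% FBS with compound (5 nM to 100 uM). Stimulation with 2.5 uM arachidonic acid plus 5 uM A23187 (final) for 10 min at 37 °C; LTB4 in supernatant quantified by EIA.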

[3] = test system: Rat whole blood (RWB); experiment: LTB4 secretion assay in RWB (rat whole blood); type: cell-based; settings: Rattus norvegicus
Method in brief: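 Heparinized blood from male Sprague Dawley rats (6-9 weeks) diluted 1:1 in RPMI, pre-incubated 15 min at 37 °C with compound (2.5 nM to 50 uM). Stimulated with 10 uM calcium ionophore A23187 for 10 min at 37 °C, stopped with ice-cold PBS; LTB4 in supernatant quantified by EIA.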

Row | SMILES | pIC50 [1] | pEC50 [2] | pEC50 [3]
1 | CN(C)c1nc2cc(NCc3ccc(Oc4ccc(Cl)cc4)cc3)ccc2[nH]1 [Compound 123] | > 6.00 | > 5.00 | > 5.00
2 | c1ccc(Oc2ccc(CNc3nc4cc(NC5COC5)ccc4[nH]3)cc2)cc1 [Compound 87] | > 6.00 | > 5.00 | > 5.00
3 | Cc1cc(Oc2ncc(Cl)cn2)cc(C)c1CNc1nc2ccc(NC3COC3)cc2n1C [Compound 417] | > 6.00 | < 4.70 | < 4.70
4 | Cn1c(NCc2ccc(Oc3ncc(C(F)(F)F)cn3)cc2)nc2ccc(NC3COC3)cc21 [Compound 374] | > 6.00 | > 5.00 | > 5.00
5 | CN(C)c1nc2ccc(N3CCC(Oc4ccc(OC(F)(F)F)cc4)C3)cc2[nH]1 (stereo not drawn) [Compound 105] | > 6.00 | > 5.00 | < 4.70
6 | Cn1c(NCc2ccc(Oc3ccc(OC(F)(F)F)cn3)cc2)nc2ccc(NC3COC3)cc21 [Compound 378] | > 6.00 | > 5.00 | > 5.00
7 | Cn1c(NCc2ccc(Oc3ncc(Cl)cn3)cc2)nc2ccc(N)cc21 [Compound 288] | > 6.00 | > 5.00 | > 5.00
8 | Cn1c(NCc2ccc(Oc3ncc(C#N)cn3)cc2)nc2ccc(NC3COC3)cc21 [Compound 368] | > 6.00 | > 5.00 | > 5.00
9 | Nc1ccc2[nH]c(NCc3ccc(Oc4ccc(Cl)cn4)cc3)nc2c1 [Compound 138] | > 6.00 | > 5.00 | > 5.00
10 | Cn1c(NCc2ccc(Oc3ncc(C(F)(F)F)cn3)cc2)nc2ccc(N)cc21 [Compound 373] | > 6.00 | > 5.00 | > 5.00
11 | Nc1ccc2[nH]c(NCc3ccc(Oc4ccc(Cl)cc4Cl)cc3)nc2c1 [Compound 135] | > 6.00 | > 5.00 | 4.70 to 5.00
12 | Nc1ccc2nc(N)n(Cc3ccc(Oc4ccc(C(F)(F)F)cn4)cc3)c2c1 [Compound 243] | > 6.00 | > 5.00 | > 5.00
13 | Cn1c(NCc2cc(Cl)c(Oc3ncc(Cl)cn3)cc2Cl)nc2ccc(NC3COC3)cc21 [Compound 433] | > 6.00 | 4.70 to 5.00 | > 5.00
14 | Nc1ccc2[nH]c(NCc3ccc(Oc4ccc(OC(F)(F)F)cc4)cc3)nc2c1 [Compound 88] | > 6.00 | > 5.00 | > 5.00
15 | Nc1ccc2[nH]c(NCCc3ccc(Cl)cc3Cl)nc2c1 [Compound 73] | > 6.00 | > 5.00 | 4.70 to 5.00
16 | CC(C)n1c(NCc2ccc(Oc3ccc(Cl)cn3)cc2)nc2ccc(NC3COC3)cc21 [Compound 271] | > 6.00 | > 5.00 | > 5.00
17 | Cn1c(NCc2ccc(Oc3ccc(Cl)cn3)cc2)nc2ccc(NC(C)(C)C(N)=O)cc21 [Compound 306] | > 6.00 | > 5.00 | > 5.00

Row | SMILES | pIC50 [1] | pEC50 [2] | pEC50 [3]
18 | OCCNc1nc2ccc(NC3COC3)cc2n1Cc1ccc(Oc2ccc(Cl)cn2)cc1 [Compound 251] | > 6.00 | > 5.00 | > 5.00
19 | Cn1c(NCc2ccc(Oc3cnc(Cl)nc3)cc2)nc2ccc(NC3COC3)cc21 [Compound 341] | > 6.00 | 4.70 to 5.00 | > 5.00
20 | Nc1nc2cc(NCCOc3ccc(OC(F)(F)F)cc3)ccc2[nH]1 [Compound 75] | > 6.00 | 4.70 to 5.00 | < 4.70
21 | Cc1cc(Nc2ccc3nc(NCc4ccc(Oc5ccc(Cl)cn5)cc4)n(C)c3c2)n[nH]1 [Compound 466] | > 6.00 | > 5.00 | > 5.00
22 | Cn1c(NCc2c(F)cc(Oc3ncc(Cl)cn3)cc2F)nc2ccc(NC3COC3)cc21 [Compound 431] | > 6.00 | > 5.00 | > 5.00
23 | OCCNc1nc2ccc(NC3COC3)cc2n1Cc1ccc(Oc2ccc(Cl)cc2)cc1 [Compound 204] | > 6.00 | > 5.00 | > 5.00
24 | Cn1c(NCc2ccc(Oc3ncc(OC(F)(F)F)cn3)cc2)nc2ccc(NC3COC3)cc21 [Compound 412] | > 6.00 | > 5.00 | > 5.00
25 | CC(Nc1ccc2nc(N(C)C)[nH]c2c1)c1ccc(Oc2ccc(OC(F)(F)F)cc2)nc1 (stereo not drawn) [Compound 150] | > 6.00 | > 5.00 | < 4.70
26 | Nc1ccc2[nH]c(NCc3ccc(Oc4ccc(F)c(F)c4)cc3)nc2c1 [Compound 113] | > 6.00 | > 5.00 | > 5.00
27 | Nc1ccc2nc(NCc3ccc(C(=O)c4ccccc4)cc3)[nH]c2c1 [Compound 106] | > 6.00 | > 5.00 | > 5.00
28 | CC(Nc1ccc2nc(N(C)C)[nH]c2c1)c1ccc(Oc2ccc(Cl)cn2)cc1 (stereo not drawn) [Compound 152] | > 6.00 | > 5.00 | 4.70 to 5.00
29 | Cn1c(NCCOc2ccc(OC(F)(F)F)c(Cl)c2)nc2ccc(N)cc21 [Compound 58] | > 6.00 | > 5.00 | < 4.70
30 | Nc1ccc2[nH]c(NCc3ccc(Oc4ccc(Cl)nc4)cc3)nc2c1 [Compound 136] | > 6.00 | > 5.00 | > 5.00
31 | Nc1ccc2[nH]c(NCc3ccc(Oc4ccc(Cl)c(Cl)c4)cc3)nc2c1 [Compound 112] | > 6.00 | > 5.00 | 4.70 to 5.00
32 | Cn1c(NCc2ccc(Oc3ccc(Cl)cc3)cn2)nc2ccc(NC3COC3)cc21 [Compound 298] | > 6.00 | > 5.00 | < 4.70
33 | CCC(Nc1ccc2[nH]c(N(C)C)nc2c1)c1ccc(Oc2ccc(OC(F)(F)F)cc2)cc1 (stereo not drawn) [Compound 132] | > 6.00 | > 5.00 | < 4.70

Results, then the compound that gave them:

Row | pIC50 [1] | pEC50 [2] | pEC50 [3] | SMILES
34 | > 6.00 | > 5.00 | > 5.00 | Cc1cnc(Nc2ccc3nc(NCc4ccc(Oc5ncc(Cl)cn5)cc4)n(C)c3c2)s1 [Compound 492]
35 | > 6.00 | > 5.00 | > 5.00 | Cn1nc(C(F)F)cc1Nc1ccc2nc(NCc3ccc(Oc4ncc(Cl)cn4)cc3)n(C)c2c1 [Compound 533]
36 | > 6.00 | 4.70 to 5.00 | > 5.00 | Cn1c(NCc2ccc(Oc3ncc(Cl)cn3)cc2)nc2c(F)cc(NC3COC3)cc21 [Compound 554]
37 | > 6.00 | > 5.00 | > 5.00 | Cn1nc(Nc2ccc3nc(NCc4ccc(Oc5ncc(Cl)cn5)cc4F)n(C)c3c2)cc1C(F)(F)F [Compound 503]
38 | > 6.00 | > 5.00 | > 5.00 | Cc1cc(Nc2ccc3nc(NCc4ccc(Oc5ccc(OC(F)(F)F)cn5)cc4)n(C)c3c2)n[nH]1 [Compound 496]
39 | > 6.00 | > 5.00 | > 5.00 | CCn1c(NCc2ccc(Oc3cnc(Cl)cn3)cc2)nc2ccc(Nc3cc(C(C)(C)C)[nH]n3)cc21 [Compound 514]
40 | > 6.00 | > 5.00 | > 5.00 | CCC(Nc1nc2ccc(NC3COC3)cc2n1C)c1ccc(Oc2ncc(C(F)(F)F)cn2)cc1F (stereo not drawn) [Compound 543]
41 | > 6.00 | > 5.00 | > 5.00 | CCn1c(NCc2ccc(Oc3ncc(C(F)(F)F)cn3)cc2)nc2ccc(Nc3cc(C)[nH]n3)cc21 [Compound 531]
42 | > 6.00 | > 5.00 | > 5.00 | CCn1c(NCc2ccc(Oc3ncc(Cl)cn3)cc2F)nc2ccc(Nc3cc(C)[nH]n3)cc21 [Compound 536]
43 | > 6.00 | > 5.00 | > 5.00 | CCC(Nc1nc2ccc(Nc3cc(C)[nH]n3)cc2n1C)c1ccc(Oc2ncc(Cl)cn2)cc1F (stereo not drawn) [Compound 537]
44 | > 6.00 | > 5.00 | > 5.00 | Cc1cc(Nc2ccc3nc(NCc4ccc(Oc5ncc(Cl)cn5)cc4)[nH]c3c2)n[nH]1 [Compound 470]
45 | 5.00 to 6.00 | > 5.00 | > 5.00 | Cn1nc(Nc2ccc3nc(NCc4ccc(Oc5ccc(Cl)cn5)cc4)n(C)c3c2)cc1C(F)(F)F [Compound 502]
46 | 5.00 to 6.00 | > 5.00 | > 5.00 | CCn1c(NCc2ccc(Oc3ncc(Cl)cn3)cc2)nc2ccc(Nc3cc(C(F)(F)F)n(C)n3)cc21 [Compound 504]
47 | 5.00 to 6.00 | > 5.00 | > 5.00 | Cn1c(NCc2ccc(Oc3ncc(Cl)cn3)cc2)nc2ccc(Nc3nc(C(F)(F)F)co3)cc21 [Compound 493]
48 | > 6.00 | > 5.00 | > 5.00 | CCC(Nc1nc2ccc(Nc3cc(C(C)C)[nH]n3)cc2n1C)c1ccc(Oc2ncc(Cl)cn2)cc1 (stereo not drawn) [Compound 529]
